Data: PMC11587516 (ACS Chemical Neuroscience, 2024)

Experiments:
[1] = test system: GABAA receptors; assay: GABAA receptor [3H]-muscimol radioligand binding assay, rat cortical membranes; details: rat cortex
Method: A 10 mM stock solution of the tested compound was prepared in DMSO. Serial dilutions of the compound were prepared in 96-well microplates in assay buffers using automated pipetting system epMotion 5070 (Eppendorf). Each compound was tested in 8 concentrations from 10^–3 to 10^–10 M (final concentration). Radioligand binding was performed using tissue rat cortex according to the previous procedure.[22] All assays were carried out in duplicates. 50 μL of working solution of the tested compounds, 50 μL of [^3H]-muscimol (final concentration 2.0 nM), and 150 μL of tissue suspension prepared in assay buffer (50 mM Tris-HCl, pH 7.4) were transferred to polypropylene 96-well microplate using 96-well pipetting station Rainin Liquidator (Mettler-Toledo). […] The microplate was covered with sealing tape, mixed, and incubated for 15 min at 4 °C. The reaction was terminated by rapid filtration through GF/B filter mate. Ten rapid washes with 200 μL of 50 mM Tris buffer (4 °C, pH 7.4) were performed using 96-well FilterMate harvester (PerkinElmer). The filter mates were dried at 37 °C in forced air fan incubator and then solid scintillator MeltiLex was melted on filter mates at 90 °C for 4 min. The radioactivity on the filter was measured in MicroBeta TriLux 1450 scintillation counter (PerkinElmer). […]

[2] = target: T1, hGAT3 (Homo sapiens, UniProt P48066); assay: [3H]GABA uptake assay, CHO cells stably expressing hGAT3; assay type: cell-based
T1 construct: expressed in transfected cells
T1 sequence (P48066 1-632): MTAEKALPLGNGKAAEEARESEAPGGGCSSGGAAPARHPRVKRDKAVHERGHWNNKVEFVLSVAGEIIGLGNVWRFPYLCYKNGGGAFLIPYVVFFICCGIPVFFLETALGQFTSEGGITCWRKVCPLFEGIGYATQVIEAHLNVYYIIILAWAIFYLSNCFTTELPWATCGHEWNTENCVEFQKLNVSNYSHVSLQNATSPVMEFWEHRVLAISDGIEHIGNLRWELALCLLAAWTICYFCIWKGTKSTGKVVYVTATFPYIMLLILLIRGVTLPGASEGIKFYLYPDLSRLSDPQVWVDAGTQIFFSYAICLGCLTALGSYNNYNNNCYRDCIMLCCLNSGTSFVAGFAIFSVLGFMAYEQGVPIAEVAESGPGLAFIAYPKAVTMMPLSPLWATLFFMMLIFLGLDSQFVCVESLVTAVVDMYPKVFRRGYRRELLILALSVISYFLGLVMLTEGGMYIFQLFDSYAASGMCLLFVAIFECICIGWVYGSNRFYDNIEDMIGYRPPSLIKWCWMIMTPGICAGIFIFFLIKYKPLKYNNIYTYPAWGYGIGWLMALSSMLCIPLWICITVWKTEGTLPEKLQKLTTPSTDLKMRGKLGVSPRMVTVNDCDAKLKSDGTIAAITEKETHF

[3] = target: T2, hBGT1 wt (Homo sapiens, UniProt P48065); assay: [3H]GABA uptake assay, wild type hBGT1 transiently expressed in tsA201 cells; assay type: cell-based
T2 construct: expressed in transfected cells; host or cells: tsA201 cells (transformed HEK293), transient expression
T2 sequence (P48065 1-614): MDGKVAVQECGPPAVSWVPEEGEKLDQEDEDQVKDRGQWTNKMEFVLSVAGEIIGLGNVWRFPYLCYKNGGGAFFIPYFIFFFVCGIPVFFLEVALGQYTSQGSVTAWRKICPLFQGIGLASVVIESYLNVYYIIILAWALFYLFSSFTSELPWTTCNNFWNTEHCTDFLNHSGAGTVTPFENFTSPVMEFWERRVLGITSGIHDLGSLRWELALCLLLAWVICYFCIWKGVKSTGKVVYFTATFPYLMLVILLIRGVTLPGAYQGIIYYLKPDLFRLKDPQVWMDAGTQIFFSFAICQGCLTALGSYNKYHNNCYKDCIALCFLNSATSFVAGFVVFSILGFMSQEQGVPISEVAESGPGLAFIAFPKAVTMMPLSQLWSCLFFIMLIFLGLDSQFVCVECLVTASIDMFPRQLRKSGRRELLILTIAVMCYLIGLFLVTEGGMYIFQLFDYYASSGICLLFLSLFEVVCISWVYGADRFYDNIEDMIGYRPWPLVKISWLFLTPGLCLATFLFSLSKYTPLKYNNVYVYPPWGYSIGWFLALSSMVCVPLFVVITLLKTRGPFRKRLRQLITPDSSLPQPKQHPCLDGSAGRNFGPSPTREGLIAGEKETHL
Method: To validate the molecular modeling, particularly the crucial interactions with the Glu52 and Gln299 residues, the activity of compound 9 was tested on the following hBGT1 mutants: E52A, E52Y, Q299L, and the double mutant E52A+Q299L (Figure 5 and Table 1).[14]
The CHO cells were placed in 96-well plates (approximately 50,000 cells/well) for about 24 h before the experiment. […] After incubation, cells were washed 3 times with 100 μL/well ice-cold assay buffer, 150 μL/well MicroScint20 (PerkinElmer) was subsequently added before the plate was shaken for at least 1 h. The radioactivity of each well of the plate was measured on a TopCount NXT scintillation counter. […] Data presented are the pooled data of at least three independent experiments with three technical replicates if not stated otherwise in figure legends. Concentration–response curves were fitted by nonlinear regression to the sigmoidal concentration–response model with GraphPad Prism v 9.0.
The tsA201 cell line (a transformed HEK293 cell line) has been described previously and was cultured accordingly.[20] The tsA201 cells used for transient expression of hBGT1 mutants were transfected with DNA constructs (8 μg per 10 cm plate) using 40 μL of PolyFect transfection reagent according to the manufacturer’s protocol (Qiagen). […]

[4] = test system: normal human astrocytes (NHA); assay: Phase-contrast microscopy of normal human astrocytes in culture medium; assay type: cell-based; details: 500 μM in culture medium; 72 h
Method: Taking into account the presence of BGT1 and GAT3 transporters in astrocytes, we studied the effect of compound 9 on astrocyte viability, proliferation, and homeostasis. Normal human astrocytes (NHA) were treated with 1–100 μM compound 9 in a culture medium. The WST-1 assay was used to determine the number of metabolically active cells after 24 and 48 h of incubation. […] In the next step, a higher concentration (500 μM) of the compound and a longer incubation time (72 h) were applied, and the cells were examined by phase-contrast microscopy. […] Considering the results shown in Figure 6, compound 9 was not cytotoxic toward human astrocytes under in vitro culture conditions.
Gibco Human Astrocytes (Thermo Fisher Scientific) were maintained in a humidified 5% CO2 incubator at 37 °C. The cells were cultured in Gibco Astrocyte Medium (DMEM with GlutaMAX, N-2 Supplement, and OneShot Fetal Bovine Serum) supplemented with penicillin G (100 U/mL), neomycin (10 μg/mL), and amphotericin B (0.25 μg/mL).

In the case of `NC12CC(C(=O)O)(C1)C2` [Compound 9], the “displacement of [3H]-muscimol” value ([1]; 100 μM) is reported as 4%, the “Ki ± SEM” value ([1]; [3H]-muscimol 2.0 nM) is reported as “no affinity ^a” and the IC50 [2] is reported as 58.3 µM. For the same compound, the inhibition at 100 µM ([2]; CHO, read-out: inhibition of GABA uptake) was about 73%, the IC50 [3] was 33.9 µM and the “astrocyte morphology and confluency” value [4] was “no changes in astrocyte morphology and confluency”.
